“Also recorded” adds a separate entry of the source.
Key:
[1] = test system: NDV (Newcastle disease virus) strain R2B
[2] = Qualitative test for relative solubility
[3] = test system: Human neuroblastoma cell line Sh-Sy5y; assay: Cellular toxicity assay (MTT assay), neurotoxicity; details: Sh-Sy5y cells, 1 ug/mL, 24 hours
plasmin = plasmin (Homo sapiens, UniProt P00747); assay: Fibrin clot degradation by plasmin (gravimetric, protease inhibition); assay type: biochemical; details: for protease inhibition activity (inhibiting plasmin mediated degradation of fibrin clots): 0-1 mM in fibrin clots, plasmin in PBS buffer; for protease inhibition activity (inhibiting plasmin mediated degradation of fibrin clots) / resistance against fibrin clot degradation by plasmin: up to 48 hours; for degradation of the clot: about 16 hours; for protease inhibition activity compared with TA (conclusion): fibrin clot / plasmin system; for resistance against fibrin clot degradation by plasmin: about 0.1 mM, triplicate; for plasmin-mediated degradation of fibrin clots at 3% loading: about 3% loading in fibrin clots
Chain of plasmin (P00747 581-810): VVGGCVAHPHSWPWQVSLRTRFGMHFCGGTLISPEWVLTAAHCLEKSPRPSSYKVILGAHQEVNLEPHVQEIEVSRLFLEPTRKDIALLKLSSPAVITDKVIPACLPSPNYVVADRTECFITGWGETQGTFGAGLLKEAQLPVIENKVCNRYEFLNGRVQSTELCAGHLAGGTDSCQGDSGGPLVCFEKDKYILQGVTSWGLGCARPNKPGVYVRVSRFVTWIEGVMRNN
Chain of plasmin (P00747 97-580): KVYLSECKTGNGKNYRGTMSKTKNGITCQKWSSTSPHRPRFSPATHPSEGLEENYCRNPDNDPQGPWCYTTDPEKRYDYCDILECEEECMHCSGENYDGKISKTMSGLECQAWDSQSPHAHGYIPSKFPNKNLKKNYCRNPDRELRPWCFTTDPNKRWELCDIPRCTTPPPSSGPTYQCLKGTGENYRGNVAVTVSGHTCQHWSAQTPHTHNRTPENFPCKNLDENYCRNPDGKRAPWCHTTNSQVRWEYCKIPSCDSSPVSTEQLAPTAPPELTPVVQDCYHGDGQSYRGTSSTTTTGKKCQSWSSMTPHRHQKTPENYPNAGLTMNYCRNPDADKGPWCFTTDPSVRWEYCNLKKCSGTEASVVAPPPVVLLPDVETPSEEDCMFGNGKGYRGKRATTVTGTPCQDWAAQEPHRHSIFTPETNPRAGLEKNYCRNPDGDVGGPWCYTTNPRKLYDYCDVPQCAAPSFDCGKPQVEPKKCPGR

[4] = Fibrin clot swelling at 3% loading, with and without plasmin; details: for fibrin clot swelling in degrading medium prior to degradation: medium containing plasmin; for fibrin clot swelling in non-degrading medium: no plasmin

Compound	antiviral activity versus virus control [1]	water solubility [2]	cytotoxicity or neurotoxicity compared with TA [3]	protease inhibition activity (inhibiting plasmin mediated degradation of fibrin clots) (plasmin; pH 7.4, 37° C.)	degradation of the clot (plasmin; 0.1 mM, plasmin, pH 7.4, 37° C.)	degradation of the clot (plasmin; 1 mM, plasmin, pH 7.4, 37° C.)	protease inhibition activity compared with TA (conclusion) (plasmin)	toxicity to cells treated with compound only [1]	solvent needed to dissolve in buffer relative to water ([2]; pH 7.4 100 mM phosphate buffer versus water)	solubility in methanol or propanol ([2]; room temperature)	fibrin clot swelling in degrading medium prior to degradation [4]	fibrin clot swelling in non-degrading medium [4]	resistance against fibrin clot degradation by plasmin (plasmin; pH 7.4, 37° C.)	plasmin-mediated degradation of fibrin clots at 3% loading (plasmin)	concentration at which efficacious against fibrin clot degradation (plasmin; plasmin, pH 7.4, 37° C.)
COCC(=O)NCC1CCC(C(=O)O)CC1 (stereo not shown) [MTA, N-(methoxy-acetamido) tranexamic acid]	no significant difference between the virus control and treated	water soluble	reduced neurotoxicity than TA	exhibit protease inhibition activity	100%	about 85.1+/−0.6%	eliminates or significantly reduces protease inhibition activity; also recorded: reduced protease inhibition activity than TA								
NCC1CCC(C(=O)[O][Ca][O]C(=O)C2CCC(CN)CC2)CC1 (stereo not shown) [Ca-TA, Calcium bis-tranexamate]	no significant difference between the virus control and treated	water soluble	comparable cytotoxicity or neurotoxicity results as that of TA	dose-dependent protease inhibition activity; also recorded: exhibit protease inhibition activity			comparable to that of TA	no toxicity was observed	approximately four times as much solvent	not soluble to a significant degree	more than 50%	more than 50%	effective resistance	inhibited plasmin-mediated degradation of the fibrin clots for a longer period	≤ 0.1 mM
NCC1CCC(C(=O)O)CC1 (stereo not shown) [TA, Tranexamic acid, reference compound]	no significant difference between the virus control and treated										degraded without swelling	did not swell	effective resistance	inhibited plasmin-mediated degradation of the fibrin clots for a longer period	
